This passage reports Papp A→B results from patent US20200131669A1, “CYCLIC PEPTIDE COMPOUND HAVING HIGH MEMBRANE PERMEABILITY, AND LIBRARY CONTAINING SAME” (Chugai Seiyaku Kabushiki Kaisha, priority 2017, published 2020).

Starred links: 1 amine or outer side, 2 acyl side, 3 side chain; linkers in the order of their positions; H or OH if unused. Positions of bridges follow the written chain, without caps; N, C: chain ends. Non-standard residues stand in square brackets, D forms with d. Residues, ends and D or L forms follow the SMILES beside them. *: point of attachment. NMePhe(3-Cl) = CN[C@@H](Cc1cccc(Cl)c1)C(=O)O; NMehPhe = CN[C@@H](CCc1ccccc1)C(=O)O; X3 = O=C([C@H](CCCCO)N[*:1])[*:2]; NMeF = CN[C@@H](Cc1ccccc1)C(=O)O; NMeGABA = CN(CCCC(=O)[*:2])[*:1]; NMeI = CC[C@H](C)[C@H](NC)C(=O)O; Butyl(3-Me,3-OH) = CC(C)(O)CC*; CH2CONHtBu = CC(C)(C)NC(=O)C*; NMeL = CN[C@@H](CC(C)C)C(=O)O; NMeV = CN[C@H](C(=O)O)C(C)C; NMeA = CN[C@@H](C)C(=O)O; Piperidide = C1CCN(*)CC1; CH2CMe2OH = CC(C)(O)C*; NBuGly = CCCCNCC(=O)O; Isopentyl = CC(C)CC*; NPrGly = CCCNCC(=O)O; Sar = CNCC(=O)O; tBu = CC(C)(C)*

The first data set in a line: Caco-2 membrane permeability, improved method as used in the following Examples (96-well, 20 to 24 h preincubation). Type of data set: in vitro ADME. The note with it: Caco-2, Caco-2. In a few lines: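 Caco-2 monolayers were grown three weeks and preincubated 20–24 h at 37 °C with compound in DMEM+FaSSIF (1% DMSO) apically. The assay then used compound in FaSSIF/HBSS (1% DMSO, pH 6.0) apically and HBSS with 4% BSA (pH 7.4) basally. Basal samples were taken at 180 min for LC/MS, and Papp (cm/sec) was calculated.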
Background: Passage across Caco-2 layers is used to estimate intestinal permeability.
As for `CC(C)C[C@@H]1NC(=O)[C@H](CCc2ccccc2)N(C)C(=O)[C@@H](C(C)C)NC(=O)C[C@@H](C(=O)N2CCCCC2)NC(=O)[C@H](CC(C)C)N(C)C(=O)[C@H](Cc2ccccc2)N(C)C(=O)[C@H](COCCC(C)(C)O)NC(=O)[C@H](CC(C)C)N(C)C(=O)CN(C)C(=O)[C@H]([C@@H](C)O)NC(=O)[C@H](CC(C)C)N(C)C1=O` [pd438] ([dV][NMehPhe]L[NMeL]T[Sar][NMeL]S(Butyl(3-Me,3-OH))[NMeF][NMeL]D-Piperidide; lactam N-11), the Papp A→B is 1 ×10⁻⁶ cm/s.
On the same count and under the same terms, the value for `CC(C)C[C@@H]1NC(=O)[C@H](CC(C)C)N(C)C(=O)C[C@@H](C(=O)N2CCCCC2)NC(=O)[C@H](CC(C)C)N(C)C(=O)CN(C)C(=O)[C@H](CCC(=O)N(C)C)NC(=O)[C@H](CC(C)C)N(C)C(=O)[C@H](Cc2ccccc2)N(C)C(=O)[C@H](CC(C)C)NC(=O)[C@H](Cc2ccccc2)N(C)C(=O)[C@H](CC(C)C)N(C)C1=O` [pd439] ([NMeL]L[NMeL][NMeF]L[NMeF][NMeL]E(NMe2)[Sar][NMeL]D-Piperidide; lactam N-11) was 1 ×10⁻⁶ cm/s.

The same data set, now with this note: human, Caco-2, Caco-2.
Compound `CCCN1CC(=O)N(C)[C@@H](CC(C)C)C(=O)N[C@@H](COCCC(C)C)C(=O)N(C)[C@@H](Cc2ccccc2)C(=O)N(C)[C@@H](C(C)C)C(=O)N[C@H](C(=O)N2CCCCC2)CC(=O)N[C@H](C(C)C)C(=O)N(C)[C@@H](Cc2ccccc2)C(=O)N[C@@H](COCC(C)(C)O)C(=O)N(C)[C@@H](CC(C)C)C(=O)N[C@@H]([C@@H](C)O)C1=O` [pd426] ([dV][NMeF]S(CH2CMe2OH)[NMeL]T[NPrGly][NMeL]S(Isopentyl)[NMeF][NMeV]D-Piperidide; lactam N-11) registered a Papp A→B at 180 min of 1.4 ×10⁻⁶ cm/s.
Same read-out and setting: for `CC(C)C[C@@H]1NC(=O)[C@H](Cc2ccccc2)N(C)C(=O)[C@@H](C(C)C)NC(=O)C[C@@H](C(=O)N2CCCCC2)NC(=O)[C@H](CC(C)C)N(C)C(=O)[C@H](Cc2cccc(Cl)c2)N(C)C(=O)[C@H](COCC(C)(C)O)NC(=O)[C@H](CC(C)C)N(C)C(=O)CN(C)C(=O)[C@H]([C@@H](C)O)NC(=O)[C@H](CC(C)C)N(C)C1=O` [pd427] ([dV][NMeF]L[NMeL]T[Sar][NMeL]S(CH2CMe2OH)[NMePhe(3-Cl)][NMeL]D-Piperidide; lactam N-11) the value was 1.3 ×10⁻⁶ cm/s.
Same read-out and setting: the value for `CCCN1CC(=O)N(C)[C@@H](CC(C)C)C(=O)N[C@H](C(=O)N2CCCCC2)CC(=O)N(C)[C@@H](C)C(=O)N[C@@H](COCC(C)(C)O)C(=O)N(C)[C@@H](CC(C)C)C(=O)N(C)[C@@H](Cc2ccccc2)C(=O)N[C@@H](CC(C)C)C(=O)N(C)[C@@H](Cc2ccccc2)C(=O)N(C)[C@@H]([C@@H](C)CC)C(=O)N[C@@H]([C@@H](C)O)C1=O` [pd428] ([NMeA]S(CH2CMe2OH)[NMeL][NMeF]L[NMeF][NMeI]T[NPrGly][NMeL]D-Piperidide; lactam N-11) was 2.8 ×10⁻⁶ cm/s; that for `CCCN1CC(=O)N(C)[C@@H](CC(C)C)C(=O)N[C@H](C(=O)N2CCCCC2)CC(=O)N(C)[C@@H](C)C(=O)N[C@@H](CC(C)C)C(=O)N(C)[C@@H](CC(C)C)C(=O)N(C)[C@@H](Cc2ccccc2)C(=O)N[C@@H](COCC(C)(C)O)C(=O)N(C)[C@@H](Cc2ccccc2)C(=O)N(C)[C@@H]([C@@H](C)CC)C(=O)N[C@@H]([C@@H](C)O)C1=O` [pd429] ([NMeA]L[NMeL][NMeF]S(CH2CMe2OH)[NMeF][NMeI]T[NPrGly][NMeL]D-Piperidide; lactam N-11) was 3.3 ×10⁻⁶ cm/s.
On the same count and under the same terms, the value for `CCCN1CC(=O)N(C)[C@@H](Cc2cccc(Cl)c2)C(=O)N(C)[C@@H](CC(C)C)C(=O)N[C@@H](COC(C)(C)C)C(=O)N(C)[C@@H](CC(C)C)C(=O)N[C@H](C(=O)N2CCCCC2)CC(=O)N(C)CC(=O)N(C)[C@@H](Cc2ccccc2)C(=O)N[C@@H](COCC(C)(C)O)C(=O)N(C)[C@@H](CC(C)C)C(=O)N[C@@H]([C@@H](C)O)C1=O` [pd430] ([Sar][NMeF]S(CH2CMe2OH)[NMeL]T[NPrGly][NMePhe(3-Cl)][NMeL]S(tBu)[NMeL]D-Piperidide; lactam N-11) was 1.3 ×10⁻⁶ cm/s; that for `CCCN1CC(=O)N(C)[C@@H](CC(C)C)C(=O)N[C@@H](COCC(C)(C)O)C(=O)N(C)[C@@H](Cc2ccccc2)C(=O)N(C)[C@@H](CC(C)C)C(=O)N[C@H](C(=O)N2CCCCC2)CC(=O)N[C@H](C(C)C)C(=O)N(C)[C@@H](Cc2ccccc2)C(=O)N[C@@H](CC(C)C)C(=O)N(C)[C@@H](CC(C)C)C(=O)N[C@@H]([C@@H](C)O)C1=O` [pd432] ([dV][NMeF]L[NMeL]T[NPrGly][NMeL]S(CH2CMe2OH)[NMeF][NMeL]D-Piperidide; lactam N-11) was 1.5 ×10⁻⁶ cm/s.
In turn, `CC(C)CCOC[C@@H]1NC(=O)[C@H](CC(C)C)N(C)C(=O)CN(C)C(=O)[C@H]([C@@H](C)O)NC(=O)[C@H](CC(C)C)N(C)C(=O)[C@H](COCCC(C)(C)O)NC(=O)[C@H](Cc2ccccc2)N(C)C(=O)[C@@H](C(C)C)NC(=O)C[C@@H](C(=O)N2CCCCC2)NC(=O)[C@H](CC(C)C)N(C)C(=O)[C@H](Cc2ccccc2)N(C)C1=O` [pd433] ([dV][NMeF]S(Butyl(3-Me,3-OH))[NMeL]T[Sar][NMeL]S(Isopentyl)[NMeF][NMeL]D-Piperidide; lactam N-11) yielded a Papp A→B at 180 min of 1.4 ×10⁻⁶ cm/s.
Same read-out and setting: the value for `CC(C)C[C@@H]1NC(=O)[C@H](Cc2ccccc2)N(C)C(=O)[C@@H](C(C)C)NC(=O)C[C@@H](C(=O)N2CCCCC2)NC(=O)[C@H](CC(C)C)N(C)C(=O)[C@H](Cc2cccc(Cl)c2)N(C)C(=O)[C@H](COCCC(C)(C)O)NC(=O)[C@H](CC(C)C)N(C)C(=O)CN(C)C(=O)[C@H]([C@@H](C)O)NC(=O)[C@H](C(C)C)N(C)C1=O` [pd434] ([dV][NMeF]L[NMeV]T[Sar][NMeL]S(Butyl(3-Me,3-OH))[NMePhe(3-Cl)][NMeL]D-Piperidide; lactam N-11) was 1.7 ×10⁻⁶ cm/s; that for `CC[C@H](C)[C@@H]1NC(=O)[C@H](C(C)C)N(C)C(=O)CCCN(C)C(=O)C[C@@H](C(=O)N2CCCCC2)NC(=O)[C@H](CC(C)C)N(C)C(=O)[C@H](CC(C)C)N(C)C(=O)[C@H]([C@@H](C)O)NC(=O)[C@H](CC(C)C)N(C)C(=O)[C@H](COCCC(C)(C)O)NC(=O)[C@H](Cc2cccc(Cl)c2)N(C)C(=O)[C@H](Cc2ccccc2)N(C)C1=O` [pd435] ([NMeGABA][NMeV]I[NMeF][NMePhe(3-Cl)]S(Butyl(3-Me,3-OH))[NMeL]T[NMeL][NMeL]D-Piperidide; lactam N-11) was 1.4 ×10⁻⁶ cm/s; that for `CC(C)C[C@@H]1NC(=O)[C@H](Cc2ccccc2)N(C)C(=O)[C@H](CC(C)C)N(C)C(=O)[C@H](COCCC(C)(C)O)NC(=O)[C@H](C)N(C)C(=O)C[C@@H](C(=O)N2CCCCC2)NC(=O)[C@H](CC(C)C)N(C)C(=O)CN(C)C(=O)[C@H]([C@@H](C)O)NC(=O)[C@H](CC(C)C)N(C)C(=O)[C@H](CCc2ccccc2)N(C)C1=O` [pd436] ([NMeA]S(Butyl(3-Me,3-OH))[NMeL][NMeF]L[NMehPhe][NMeL]T[Sar][NMeL]D-Piperidide; lactam N-11) was 1.3 ×10⁻⁶ cm/s.
Same read-out and setting: for `CC(C)C[C@@H]1NC(=O)[C@H](C)N(C)C(=O)C[C@@H](C(=O)N2CCCCC2)NC(=O)[C@H](CC(C)C)N(C)C(=O)CN(C)C(=O)[C@H]([C@@H](C)O)NC(=O)[C@H](CC(C)C)N(C)C(=O)[C@H](CCc2ccccc2)N(C)C(=O)[C@H](COCCC(C)(C)O)NC(=O)[C@H](Cc2ccccc2)N(C)C(=O)[C@H](CC(C)C)N(C)C1=O` [pd437] ([NMeA]L[NMeL][NMeF]S(Butyl(3-Me,3-OH))[NMehPhe][NMeL]T[Sar][NMeL]D-Piperidide; lactam N-11) the value was 1.3 ×10⁻⁶ cm/s; for `CC(C)C[C@@H]1NC(=O)[C@H](Cc2ccccc2)N(C)C(=O)[C@H](C)N(C)C(=O)C[C@@H](C(=O)N2CCCCC2)NC(=O)[C@H](CC(C)C)N(C)C(=O)[C@H](CC(C)C)N(C)C(=O)[C@H](COC(C)(C)C)NC(=O)[C@H](CC(C)C)N(C)C(=O)[C@H](C)N(C)C(=O)[C@H](CCC(=O)N(C)C)NC(=O)[C@H](CC(C)C)N(C)C1=O` [pd440] ([NMeA][NMeF]L[NMeL]E(NMe2)[NMeA][NMeL]S(tBu)[NMeL][NMeL]D-Piperidide; lactam N-11), 4 ×10⁻⁶ cm/s; for `CC(C)C[C@@H]1NC(=O)[C@H](Cc2ccccc2)N(C)C(=O)[C@@H](CC(C)C)NC(=O)C[C@@H](C(=O)N2CCCCC2)NC(=O)[C@H](CC(C)C)N(C)C(=O)[C@H](Cc2ccccc2)N(C)C(=O)[C@H](COC(C)(C)C)NC(=O)[C@H](CC(C)C)N(C)C(=O)CN(C)C(=O)[C@H](CCC(=O)N(C)C)NC(=O)[C@H](CC(C)C)N(C)C1=O` [pd441] ([dL][NMeF]L[NMeL]E(NMe2)[Sar][NMeL]S(tBu)[NMeF][NMeL]D-Piperidide; lactam N-11), 1.7 ×10⁻⁶ cm/s.
For `CCCCN1CC(=O)N(C)[C@@H](Cc2ccccc2)C(=O)N[C@@H]([C@@H](C)CC)C(=O)N(C)[C@@H](CC(C)C)C(=O)N[C@@H]([C@@H](C)O)C(=O)N(CCC)CC(=O)N(C)[C@@H](Cc2ccccc2)C(=O)N(C)[C@@H](CC(C)C)C(=O)N[C@@H](COCC(=O)NC(C)(C)C)C(=O)N(C)[C@@H](C)C(=O)N[C@H](C(=O)N2CCCCC2)CC1=O` [pd443] ([NBuGly][NMeF]I[NMeL]T[NPrGly][NMeF][NMeL]S(CH2CONHtBu)[NMeA]D-Piperidide; lactam N-11), the Papp A→B at 180 min came out at 1 ×10⁻⁶ cm/s.

The same data set, now with this note: human; Papp, Caco-2 membrane permeability, improved method; read-out: Caco-2.
For `CC(C)C[C@H]1C(=O)N[C@@H](C(C)C)C(=O)N(C)[C@@H](Cc2ccccc2)C(=O)N(C)[C@@H](Cc2ccccc2)C(=O)N[C@@H](COC(C)(C)C)C(=O)N(C)[C@@H](CC(C)C)C(=O)N[C@@H](CCCCO)C(=O)N(C)[C@@H](CC(C)C)C(=O)N(C)[C@@H](CC(C)C)C(=O)N[C@H](C(=O)N2CCCCC2)CC(=O)N(C)CCCC(=O)N1C` [pd446] ([NMeGABA][NMeL]V[NMeF][NMeF]S(tBu)[NMeL][X3][NMeL][NMeL]D-Piperidide; lactam N-11), the Papp A→B at 180 min turned out to be 1.3 ×10⁻⁶ cm/s.
